For assay [1], the system named is autophagy proteins (p62, LC3, ATG12-ATG5, ATG12, Beclin-1) in U1 cells. The assay is described as follows: Autophagy protein profile, CBD versus autophagy drugs, in U1 cells and their EVs (Western blot). Particulars: 5 days, Rapamycin 50 nM, INK128 50 nM. Format: cell-based. As to the method:
FIGS. 18A-18B are gels showing CBD promotes autophagy turnover, resulting in a decrease in extracellular autophagosomal secretion. A) U1 cells (1×10^6) were treated±CBD (10 μM) for the following incubation periods: 0, 6, 24, and 48 hours. Cells were pelleted and lysed, exosomes from supernatants were enriched with NT80/82 beads overnight at 4° C. Samples were run through SDS-PAGE and western blotted for autophagy proteins (p62 and LC3), and Actin. B) U1 cells (1×10^6) were treated±10 μM CBD (every day), Rapamycin (50 nM), INK128 (50 nM), Bafilomycin A1 (50 nM), SB 203580 (20 μM), Wortmannin (2 nM) for a 5-day incubation period. Cells were pelleted and lysed, exosomes from supernatants were enriched using NT80/82 beads overnight at 4° C. Samples were run through SDS-PAGE and western blotted for autophagy proteins (p62, LC3, ATG12-ATG5, ATG12, Beclin-1), and Actin.
FIGS. 21A-21K are graphs showing normalized densitometry analysis of CBD and autophagy drug treatment on HIV-1 infected monocytes. Intracellular (A) p62, (B) LC3 I, (C) LC3 II, (D) ATG12-ATG5 complex, (E) ATG12, and (F) Beclin-1, and extracellular (G) p62, (H) LC3 I, (I) LC3 II, (J) ATG12-ATG5 complex, and (K) Beclin-1 densitometry counts were calculated from the Western blot data in FIG. 5B, normalized to respective intracellular and extracellular Actin levels, and plotted.
To determine the specific points at which CBD inhibits intracellular and extracellular autophagosome formation and secretion, we compared CBD treatment of U1 monocytes with known inhibitors of different points in the autophagy pathway. Cell viability was assessed among a panel of titrated autophagy drugs and the least toxic concentration per drug was utilized (FIG. 20). We treated U1 cells with CBD (10 μM) every day, Rapamycin (50 nM), INK128 (50 nM), Bafilomycin A1 (50 nM), SB 203580 (20 μM), or Wortmannin (2 nM) for 5 days. Our rationale for using these drugs was that they regulate different steps of autophagy including nucleation inhibition by inhibiting MTOR activity (Rapamycin, INK128) or by inhibiting pre-autophagosomal VPS34 complex activity (Wortmannin, SB 203580), and autophagosome-lysosome fusion inhibition (Bafilomycin A1). Therefore, a side-by-side comparison to CBD would potentially allow for a better definition of which step of autophagosome formation is primarily regulated by CBD. U1 cells were treated with the autophagy regulators and harvested along with their corresponding supernatants for further analysis using Western blot against p62, LC3, ATG12-ATG5 complex, free ATG12, Beclin-1, and Actin. Results in FIG. 18B (intracellular proteins, top panel) show autophagy protein profiles associated with the various autophagy regulators. […] The corresponding supernatants were enriched for EVs and also analyzed for the presence of autophagy proteins.

Assay [2] relates to HIV-1 89.6 infected 3D neurospheres. Description: RT-qPCR of viral RNA transcripts in infected 3D neurospheres. Format: cell-based. As to the method:
FIGS. 22A-22D are graphs, gels, schematics, and images showing cannabidiol lowers viral transcripts in 3D neurospheres. A) Differential workflow of 3D neurospheres. B) Phase contrast microscopic images of three 3D neurospheres taken where scale bar=100 um. D) 3D neurospheres were treated±89.6 viral strain±cART (10 μM; Tenofovir, Emtricitabine, Lamuvidine, and Indinavir)±CBD titration (5 and 10 μM) and incubated for 7 days. RNA was isolated from the 3D neurospheres and supernatants, followed by RT-qPCR analysis for viral RNA transcripts TAR, TAR-gag, env. Student's t-test was used for statistical analysis, where *p-value≤0.05; **p-value≤0.01, ***p-value≤0.001.
Neural Progenitor Cells (NPCs; Cat: ACS-5003; ATCC) were grown using STEMdiff™ Neural Progenitor Medium (STEMCELL Technologies™) and differentiated into 3D neurospheres (1×10^5 cells/well) using DMEM:F12 (Cat: 30-2006; ATCC)+Neural Progenitor Cell Dopaminergic Differentiation Kit (Cat: ACS-3004; ATCC) for an incubation period of 14 d. Inverted microscopy using Zen imaging software (Zeiss) was used to develop phase contrast images. Neurospheres were infected with HIV-1 89.6 dual-tropic strain (MOI: 10) and 10 μL of Infectin™ (Virongy, LLC) with a total volume of 200 μL, followed by 48 h incubation period. Neurospheres were then gently washed with 1×PBS±treated twice with 10 μM cocktail (Lamivudine, Tenofovir, Emtricitabine, Indinavir)±treatment (every other day) with a titration of CBD (5 and 10 μM) for a seven-day incubation period. Neurospheres were lysed in 100 μL lysis buffer and total lysates were run on a 4-20% Tris-Glycine SDS-PAGE, followed by western blot assessment. For RT-qPCR analysis, RNA was isolated from neurospheres, followed by RT-qPCR analysis.
Next, the levels of intracellular viral RNA transcripts were assessed to determine the effects of CBD treatment on HIV-1 infected neurospheres. Prior to these experiments, the expression of relevant receptors in neurospheres were confirmed including Cannabinoid receptors CB1 and CB2, as well as the serotonin receptor 5-HT1A and the Vanilloid receptor which have been previously found to bind cannabinoids (FIG. 24). We then performed RT-qPCR analysis to quantify the expression of TAR, gag, and env.
(In general: In qPCR the cycle at which signal appears reflects the starting amount.)

Setting [3] is: CBD 10 μM every day, FIG. 18B top panel.
[4] abbreviates: CBD 10 μM, Bafilomycin A1 50 nM, SB 203580 20 μM, Wortmannin 2 nM, lower panel.
The mark [5] stands for this setting: CBD 10 μM with cART vs cART, 7 days, FIG. 22D lanes 3 vs 5.

Take `C=C(C)[C@@H]1CCC(C)=C[C@H]1c1c(O)cc(CCCCC)cc1O` [CBD, 2-[1R-3-methyl-6R-(1-methylethenyl)-2-cyclohexen-1-yl]-5-pentyl-1,3-benzenediol]: in assay [1] (setting [3]), the “intracellular ATG12-ATG5” value is given as “low levels”, the “intracellular Beclin-1” value is recorded as “high levels” and the “intracellular LC3 I” value was “low levels”. Further, in assay [1] (setting [4]), the “EV-associated LC3 I” value is “reduction” and the “EV-associated p62” value was “reduction”. In assay [2] (setting [5]), the “TAR RNA” value is on record as “signification reduction”, the “env RNA” value is reported as “signification reduction” and the “gag RNA” value was “signification reduction”. The “altering viral transcripts in neurospheres” value in assay [2] (lower concentrated CBD treatment (5 μM)) is listed as “low efficacy”.

Values taken from US12208080B2, “Compositions and methods for modulation of extracellular vesicle release and treatment of neurological disorders” (GEORGE MASON RESEARCH FOUNDATION, INC., priority 2018, dated 2025).
